Experimental findings from patent US5959113A, “Imidazol derivatives” (Hoffmann-La Roche Inc., priority 1994, dated 1999) are described below.

Each structure is given as a SMILES string. Some results are limits rather than exact numbers.

Experiment [1] has as its target protein kinase C (PKC). The experiment can be described thus: Inhibition of protein kinase C (PKC). The class given is biochemical. The conditions noted are these: partially purified PKC from hog brain, histone H1, ATP 10 μM, 2 min at 32 °C; read-out: IC50 Isolated enzyme PCK. The method, then:
Inhibition of protein kinase C (PKC)
The activity of PKC is measured by measuring the transfer of ^32 P-labelled phosphate from ^32 P-γ-ATP (10 μM) to the substrate histone H1 (200 μg/ml) using partially purified PKC from hog brain (DEAE chromatography according to U. Kikkawa et al., Methods Enzymol. 99, 288, 1983). PKC is activated by phospholipid vesicle prepared by sonicating a mixture of 0.05 ml of phosphatidylserine (10 mg/ml) and 0.005 ml of diolein (10 mg/ml) in 5 ml of Tris HCl buffer (20 mM, pH 7.4). The compounds are tested in DMSO/buffer at a concentration of 0.001-100 μM. The test is started by adding the enzyme, takes 2 minutes at 32° C. and is terminated by adding 20% trichloroacetic acid (containing 1% SDS and 1% sodium pyrophosphate). The precipitated protein with the labelled histone is separated from excess ATP by filtration over a nitrocellulose membrane filter. The radioactivity on the filter is measured in a scintillation counter. The inhibitory activity of the test compound is expressed as the micromolar concentration which is required for 50% inhibition (IC50 [μM]).
(§1) The inhibition of selected protein kinases in vitro and the inhibition of cell proliferation in HaCaT-cells by these compounds are set forth in the following Table.

Experiment [2] has as its target T1, EGF-receptor tyrosine kinase (Homo sapiens, UniProt P00533).
T1 construct: A membrane fraction from human A431 cells is used as the enzyme; endogenous in cells; host or cells: A431 cells, membrane fraction (Thom et al., Biochem. J. 168, 187 (1977))
The experiment can be described thus: Inhibition of EGF-receptor Tyrosine Kinase. The class given is biochemical. The note with it: EGF-R from A431 cell membranes, 30 °C, 30 min, ATP 10 μM, RR-src peptide 0.75 mM; read-out: IC50 Isolated enzyme EGF-R. The method, then: Inhibition of EGF-receptor Tyrosine Kinase
The activity of EGF-receptor tyrosine kinase is determined by measuring the transfer of ^32 P-labelled phosphate from ^32 P-γ-ATP (10 μM) to the substrate RR-scr peptide* (0.75 mM). A membrane fraction from human A431 cells is used as the enzyme. It is isolated according to Thom et al., Biochem. J. 168, 187 (1977) and stored at -75° C. (4-6 mg protein/ml). The compounds are tested in 10% DMSO in a concentration of 0.001-100 μM. The incubation is carried out at 30° C. for a period of 30 minutes in Tris buffer (25 mM, pH 7.4) which contains magnesium acetate (30 mM), sodium vanadate (0.5 mM), 0.5% BSA and 0.05% Triton X-100. The membranes are pre-incubated with 2 μM of EGF at 4° C. for 90 minutes. The test is started by adding the enzyme (2 μg of membrane protein) and terminated by adding ice-cold KH2 PO4 (1M, pH 3.0). After centrifugation the labelled peptide is separated from excess ATP in the supernatant by reversed phase HPLC. The peptide fraction is collected and the radioactivity is measured in a standard β-counter or on-line with a radiometer (Berthold). The inibitory activity of the test compound is expressed as the mikromolar concentration which is required for 50% inhibition (IC50 [μM]).
*RR-src peptide=[Arg-Arg-Leu-Ile-Glu-Asp-Ala-Glu-Tyr-Ala-Ala-Arg-Gly]
as §1

Experiment [3] has as its target T2, p56^Ick tyrosine kinase (Homo sapiens, UniProt P06239).
T2 construct: made in house; host or cells: E. coli
The experiment can be described thus: Inhibition of p56^Ick tyrosine kinase. The class given is biochemical. The conditions noted are these: human recombinant p56lck, 30 °C, 30 min, ATP 10 μM, RR-src peptide 0.75 mM; read-out: IC50 Isolated enzyme p56^lck. The method, then: Inhibition of p56^Ick tyrosine kinase
The activity of p56^Ick tyrosine kinase is determined by measuring the transfer of ^32 P-labelled phosphate from ^32 P-γ-ATP (10 μM) to the substrate RR-src peptide (0.75 mM). Human recombinant p56^Ick (expressed in E. coli) is used as the enzyme.
It is purified from the soluble fraction by means of a monoclonal antibody column and stored at -75° C. The compounds are tested in 10% DMSO in a concentration of 0.001-100 μM, The incubation is carried out at 30° C. for a period of 30 minutes in HEPES buffer (50 mM, pH 6.9) which contains manganese chloride (11 mM) and 0.5% BSA. The test is started by adding the enzyme and terminated by adding ice-cold KH2 PO4 (1M, pH 3.0). After centrifugation the radiolabelled peptide is separated from excess ATP in the supernatant by reversed phase HPLC. The peptide fraction is collected and the radioactivity is determined in a standard β- counter or on-line with a radiometer (Berthold). The inhibitory activity of the test compound is expressed as the micromolar concentration which is required for 50% inhibition (IC50 [μM]).
as §1

For experiment [4], the target named is cAMP-dependent protein kinase (PKA). The experiment can be described thus: Inhibition of cAMP-dependent protein kinase (PKA). The class given is biochemical. The note with it: partially purified PKA from hog brain, histone H1, ATP 10 μM, 2 min at 32 °C; read-out: IC50 Isolated enzyme PKA. The method, then:
Inhibition of cAMP-dependent protein kinase (PKA)
The activity of PKA is measured by measuring the transfer of ^32 P-labelled phosphate from ^32 P-γ-ATP (10 μM) to the substrate histone H1 (333 μg/ml) using partially purified PKA from hog brain (DEAE chromatography according to U. Kikkawa et al., Methods Enzymol. 99, 288, 1983). PKA is activated by 2 μM of cAMP in Tris HCl buffer (20 mM, pH 7.4). The compounds are tested in DMSO/buffer at a concentration of 0.001-100 μM. The test is started by adding the enzyme, takes 2 minutes at 32° C. and is terminated by adding 20% trichloroacetic acid (containing 1% SDS and 1% sodium pyrophosphate). The precipitated protein, which contains the radiolabelled histone, is separated from excess ATP by filtration through a nitrocellulose membrane filter. The radioactivity on the filter is determined in a scintillation counter. The inhibitory activity of the test compounds is expressed as the micromolar concentration which is required for 50% inhibition (IC50 [μM]).
as §1

Experiment [5] concerns HaCaT cells. The experiment can be described thus: Inhibition of HaCaT cell proliferation. The class given is cell-based. The conditions noted are these: Homo sapiens, [3H]-thymidine incorporation, 48 h at 37 °C. The method, then: Inhibition of HaCaT cell proliferation
HaCaT is a spontaneous immortalized human keratinoycte cell line (Boukamp et al. 1988) which has been used many times as a model system for hyperproliferative keratinoyctes. The incorporation of [^3 H]-thymidine was used to quantify the growing cells in the S phase of the cell cycle. The cells were cultivated with a 3:1 mixture of DMEM/F12 medium which had been supplemented with 5% FCS, EGF (10 μg/l), hydrocortisone (400 μg/l), cholera toxin (8.5 μg/l), insulin (5 μg/l), L-glutamine (2 mM) and penicillin/streptomycin. 200 μl of medium were placed in microtitre plates such that each sample contained 5000 cells. The test compounds were added in serial dilutions in the range of 1×10^-8 M to […] at the beginning of the cultivation. The cells were incubated at 37° C. for 48 hours. For the last 6 hours [^3 H]-thymidine was added ([…]). After digesting the cells with trypsin the amount of incorporated radioactivity was quantified with a liquid scintillation counter.
as §1

For experiment [6], the system named is mouse hair follicles. The experiment in a line: Stimulation of cell proliferation in cultured mouse hair follicles. The class given is cell-based. The method, then:
Stimulation of cell proliferation in cultured mouse hair follicles
Mouse hair follicles are isolated and cultured according to the method described by Buhl et al., J. Invest. Dermatol. 92, 315 (1989). Whisker parts are removed from CD-1 mice aged 4 days and the hair follicles are carefully separated from surrounding tissue under the microscope. Hair follicles are cultured in M199 medium which contains 20% FBS and the cell proliferation is determined from the incorporation of [^3 H]-thymidinein DNA. The test compounds are dissolved in DMSO and added in serial dilutions in the range of 1×10^-8 to 1×10^-6 M at the beginning of the cultivation. After 1 day 5 μCi/ml of [^3 H]-thymidine are added to the culture medium and the follicles are incubated for a further 3 days. The hair follicles are then washed with phosphate-buffered saline solution in order to remove non-incorporated radioactivity and the DNA is solubilized by incubation with alkali overnight. The radioactivity incorporated into the follicular DNA is then measured using a liquid scintillation counter.

T2 sequence (P06239 whole entry): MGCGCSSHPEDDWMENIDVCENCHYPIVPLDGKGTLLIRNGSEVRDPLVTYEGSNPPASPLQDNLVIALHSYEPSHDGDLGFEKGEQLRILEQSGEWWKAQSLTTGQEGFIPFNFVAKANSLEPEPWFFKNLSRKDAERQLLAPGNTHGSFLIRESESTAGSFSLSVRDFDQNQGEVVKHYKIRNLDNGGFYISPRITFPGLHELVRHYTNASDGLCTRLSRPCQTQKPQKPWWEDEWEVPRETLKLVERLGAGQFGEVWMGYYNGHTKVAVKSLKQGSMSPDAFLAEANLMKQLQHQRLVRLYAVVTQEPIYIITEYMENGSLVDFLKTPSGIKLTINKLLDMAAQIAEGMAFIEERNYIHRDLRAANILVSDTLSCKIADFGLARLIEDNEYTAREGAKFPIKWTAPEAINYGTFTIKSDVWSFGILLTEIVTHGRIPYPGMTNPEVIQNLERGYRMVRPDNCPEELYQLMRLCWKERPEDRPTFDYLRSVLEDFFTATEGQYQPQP
T1 sequence (P00533 25-1210): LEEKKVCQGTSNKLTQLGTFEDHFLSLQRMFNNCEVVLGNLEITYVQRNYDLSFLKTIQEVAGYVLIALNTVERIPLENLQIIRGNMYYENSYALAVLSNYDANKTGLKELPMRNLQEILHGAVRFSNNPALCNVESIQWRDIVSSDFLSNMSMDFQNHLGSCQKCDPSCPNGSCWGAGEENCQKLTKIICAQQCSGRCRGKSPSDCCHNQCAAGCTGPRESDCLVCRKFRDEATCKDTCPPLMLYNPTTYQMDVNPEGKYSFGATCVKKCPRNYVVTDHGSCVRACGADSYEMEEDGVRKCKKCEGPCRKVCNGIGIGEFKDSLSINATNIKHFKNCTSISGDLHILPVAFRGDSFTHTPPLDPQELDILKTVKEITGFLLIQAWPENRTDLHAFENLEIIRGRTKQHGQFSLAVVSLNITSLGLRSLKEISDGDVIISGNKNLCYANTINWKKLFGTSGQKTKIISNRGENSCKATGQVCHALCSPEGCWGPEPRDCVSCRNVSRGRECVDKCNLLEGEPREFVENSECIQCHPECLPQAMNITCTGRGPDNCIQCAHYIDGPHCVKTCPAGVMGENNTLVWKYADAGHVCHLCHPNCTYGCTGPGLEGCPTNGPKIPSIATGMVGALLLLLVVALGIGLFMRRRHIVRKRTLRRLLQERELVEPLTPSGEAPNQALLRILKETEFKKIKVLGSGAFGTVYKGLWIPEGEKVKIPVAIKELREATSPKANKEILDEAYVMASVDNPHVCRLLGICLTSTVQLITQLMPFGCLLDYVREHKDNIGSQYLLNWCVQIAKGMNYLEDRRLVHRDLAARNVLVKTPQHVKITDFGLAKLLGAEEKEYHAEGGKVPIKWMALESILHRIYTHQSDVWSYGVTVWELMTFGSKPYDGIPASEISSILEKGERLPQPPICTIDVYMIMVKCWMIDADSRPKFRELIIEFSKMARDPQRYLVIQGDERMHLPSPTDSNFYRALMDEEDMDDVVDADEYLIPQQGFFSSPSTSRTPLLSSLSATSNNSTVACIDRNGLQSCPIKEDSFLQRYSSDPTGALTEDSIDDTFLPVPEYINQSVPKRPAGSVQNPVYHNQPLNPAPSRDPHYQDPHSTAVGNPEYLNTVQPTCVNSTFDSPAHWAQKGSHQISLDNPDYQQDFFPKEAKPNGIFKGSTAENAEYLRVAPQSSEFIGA

One may read the IC50 as the concentration that gives 50% inhibition. Consider `Cc1cccc(-c2[nH]c(-c3c(C)cc(C)cc3C)nc2-c2ccncc2)c1` [Example 4, 4-[5-(3-methylphenyl)-2-(2,4,6-trimethylphenyl)imidazol-4-yl]pyridine], for which the IC50 is over 100 µM in experiment [1]; 0.8 µM in experiment [2]; 6 µM in experiment [3]; 190 µM in experiment [4]; 2 µM in experiment [5].
The matching figures for `CC(C)c1cccc(C(C)C)c1-c1nc(-c2ccncc2)c(-c2ccc(Cl)cc2)[nH]1` [Example 7, 4-[5-(4-chlorophenyl)-2-(2,6-diisopropylphenyl)imidazol-4-yl]pyridine]: 100 µM, 0.13 µM, 3.1 µM, 0.47 µM and 3.5 µM.
On the same counts, the results for `COC(=O)c1c(C)cc(C)c(-c2nc(-c3ccncc3)c(-c3ccc(Cl)cc3)[nH]2)c1C` [Example 9, methyl 3-[5-(4-chlorophenyl)-4-pyridin-4-yl-imidazol-2-yl]2,4,6-trimethylbenzoate] are 80 µM, 0.14 µM, 3.8 µM, 6 µM and 0.23 µM.
As to `Cc1cc(C)c(-c2nc(-c3ccncc3)c(-c3ccc(Cl)cc3)[nH]2)c(C)c1CN1CCOCC1` [Example 11, 4-[3-[5-(4-chlorophenyl)-4-pyridin-4-yl-imidazol-2-yl]-2,4,6,-trimethylbenzyl]morpholine], the IC50 was over 100 µM in experiment [1]; 0.26 µM in experiment [2]; 5.1 µM in experiment [3]; 43 µM in experiment [4]; 0.1 µM in experiment [5].
The matching figures for `Cc1cc(C)c(-c2nc(-c3ccncc3)c(-c3ccc(Cl)cc3)[nH]2)c(C)c1CN(C)C` [Example 12, [3-[5-(4-chlorophenyl)-4-pyridin-4-yl-imidazol-2-yl]-2,4,6,-trimethylbenzyl]dimethylamine]: 7 µM, 0.05 µM, 1.65 µM, 5 µM and 0.57 µM.
On the same counts, the results for `Cc1cc(C)c(-c2nc(-c3ccncc3)c(-c3ccc(Cl)cc3)[nH]2)c(C)c1CN1CCN(C)CC1` [Example 13, 1-[3-[5-(4-chlorophenyl)-4-pyridin-4-yl-imidazol-2-yl]-2,4,6,-trimethylbenzyl]-4-methylpiperazine] are 37 µM, 0.05 µM, 1.8 µM, 1.5 µM and 0.1 µM.
In the case of `Cc1cc(C)c([N+](=O)[O-])c(C)c1-c1nc(-c2ccncc2)c(-c2ccc(Cl)cc2)[nH]1` [Example 15, 4-[5-(4-chlorophenyl)-2-(2,4,6-trimethyl-3-nitrophenyl)-imidazol-4-yl]pyridine], the IC50 stood at 0.78 µM in experiment [2], 4.95 µM in experiment [3] and 0.67 µM in experiment [5].
On the same counts, the results for `Cc1cc(C)c(-c2nc(-c3ccncc3)c(-c3ccc(Cl)cc3)[nH]2)c(C)c1O` [Example 16, 3-[5-(4-chlorophenyl)-4-pyridin-4-yl-imidazol-2-yl]-2,4,6,-trimethylphenol] are 0.31 µM, 2.2 µM and 0.8 µM.
For the compound `Nc1cccc(Cl)c1-c1nc(-c2ccncc2)c(-c2ccc(Cl)cc2)[nH]1` [Example 18, 3-chloro-2-[5-(4-chlorophenyl)-4-pyridin-4-yl-imidazol-2-yl]phenylamine], the IC50 was determined as 23 µM in experiment [1]; 0.29 µM in experiment [2]; 14 µM in experiment [3]; 1.8 µM in experiment [4]; 2 µM in experiment [5].
As to `Nc1cc(N2CCCCC2)nc(N)[n+]1[O-]` [minoxidil, reference compound], in experiment [6] ([3H]-thymidine incorporation, CD-1 mouse whisker follicles, read-out: concentration which resulted in a half-maximum stimulation of the DNA synthesis (EC50 value)), the EC50 was 200 µM. Further, the “stimulation of hair follicle DNA synthesis (compared with controls)” value in experiment [6] (concentration not given, comparison agent, 5760 min) turned out to be 160±15%.
